Each structure is given as a SMILES string. “Also recorded” adds a separate entry of the source.

This assay relates to immobilized rTF. Nature of the assay: Blood perfusion over immobilized rTF, volume of platelet aggregates and fibrin. It counts as cell-based, human. The protocol:
Glass coverslips treated with 0.2 mg/ml poly-L-lysine for 6 h at 37° C. were coated with rTF for 18-20 hours at 37° C. or 2.5 mg/ml acid-insoluble type I collagen for 2 hours at 22-25° C. Then they were rinsed with pH 7.4 buffered-saline, assembled in a rectangular flow chamber with a 125 μm-high silicon gasket and positioned on a confocal microscope stage for analysis. Venous blood for testing was collected into final 10.9 mM trisodium citrate using a plastic syringe for normal volunteers or Vacutainer tubes (Becton Dickinson, Buccinasco, Milan) for patients and controls. Before perfusion at a flow rate yielding an initial wall shear rate of 300 s^−1 maintained with a syringe pump (Harvard Apparatus, Holliston, Mass.), CaCl2 was added to obtain 1.29 mM Ca^2+. In the blood of patients—potentially hypercoagulable—and related controls, lepirudin (50 nM) was also added to neutralize thrombin possibly generated before testing. […] For experiments with WT and mutant FVIIa, cells from group O citrated blood, containing 50 μg/ml CTI and 10 U/ml (ADPase activity) apyrase, were washed free of plasma by sequential centrifugation steps at 1500 g for 7 min. After the first, plasma was replaced with an equal volume of calcium-free Tyrode buffer, pH 6.5, with 5 U/ml apyrase; then with buffer and 1.25 U/ml apyrase; and finally with human FVII deficient plasma (George King Bio-Medical, Overland Park, Kans.) up to the original blood volume. Cell count results in reconstituted and native blood were within 90%. Experiments in Milan (Italy) were performed with a Leica TCS SP5 microscope and HCX PL APO 63x/1.40 NA oil immersion objective (Leica Microsystems GmbH, Wetzlar, Germany); in La Jolla (California) with a Zeiss Axiovert 135M/LSM 410 and Plan-Apochromat 40x/1.40 NA oil immersion objective (Carl Zeiss AG, Oberkochen, Germany).
Platelets adhering and aggregating onto the surface were visualized by adding quinacrine-HCl (mepacrine; 10 μg/ml; Sigma-Aldrich) to blood. Deposited fibrin was visualized with Alexa Fluor 546-labeled (Invitrogen) mouse monoclonal IgG (50 μg/ml) specific for the B chain of mouse and human fibrin (HB-8545; ATCC). Blood was perfused for 3-5 min at 37° C. with a syringe pump (Harvard Apparatus Inc.) at a flow rate yielding an initial (in the unobstructed flow path) wall shear rate of 300 s^−1. This was followed by buffer (DMEM) for 2 minutes to facilitate fibrin quantification by confocal z section analysis using a Zeiss Axiovert 135M/LSM 410 microscope (Carl Zeiss) and Plan-Apochromat×63/1.40 NA oil immersion objective. Image analysis was performed with NIH ImageJ64. Deposited fibrin volume was measured from confocal sections collected at 4 preset positions in the flow chamber. Total volume of deposited platelets and fibrin was calculated from the sum of the respective area coverage per section multiplied by the z interval (2 μm). All studies involving human subjects were conducted following institutionally approved protocols.
TF-coated glass coverslips were perfused with venous blood at a wall shear rate of 300 s^−1. A Zeiss Axiovert 135M/LSM 410 and Plan-Apochromat 40x/1.40 NA oil immersion objective (Carl Zeiss AG, Oberkochen, Germany) was used to visualize platelets/leukocytes and fibrin stained with mepacrine and a specific anti-body, respectively. Image analysis to calculate volumes was performed as described herein.
Glass coverslips treated with 0.2 mg/ml poly-L-lysine for 6 h at 37° C. were coated with rTF for 18-20 hours at 37° C., rinsed with buffered-saline and assembled in a rectangular flow chamber with a 125 μm-high silicon gasket. Venous blood was collected into final 10.9 mM trisodium citrate using a plastic syringe. CaCl2 was added to obtain 1.29 mM Ca^2+ before perfusion at a wall shear rate of 300 s-1 maintained with a syringe pump (Harvard Apparatus, Holliston, Mass.). […]

As for `O=C(NC[C@H]1CN(c2ccc(N3CCOCC3=O)cc2)C(=O)O1)c1ccc(Cl)s1` [Rivaroxaban], where the note is “blood of treated patients, high density TF surface”, the fibrin deposition entry was “as low as in warfarin treated patients”. The “volume of deposited fibrin” value (blood of treated patients, higher rTF coating concentration, 300 s^-1, 5 min) is recorded as “significantly greater; also recorded: fibrin formation in the normal range”. Further, the “volume of deposited fibrin vs untreated controls” value (blood of treated patients, lower rTF coating concentration, 300 s^-1, 5 min) is on record as “markedly smaller”. Also, for the setting “blood of treated patients, rTF coating 20 and 40 pM”, the “volume of platelet aggregates vs controls” value is “non significantly different from controls”. Besides, where the note is “rivaroxaban added to normal blood in vitro at the concentration measured in treated patients”, the fibrin volume entry is “reduced fibrin volume partially”.

The values above are taken from patent publication US11136370B2, “Compositions and methods for thrombin generation assay” (The Scripps Research Institute, priority 2016, dated 2021).
